Drawing on PubChem BioAssay AID192 (DTP/NCI, 2004), this text covers T/C for 16 compounds.

SMILES strings stand for the structures. “And” between values parts separate entries of the source, which are not always exact repeats. Equal entries are not always repeated. Inconclusive results and toxic doses are left out.

In this test the test system is BDF1 mice, B16 melanoma ip, median survival T/C. Nature of the test: NCI In Vivo Anticancer Drug Screen. Data for tumor model B16 Melanoma (intraperitoneal) in B6D2F1 (BDF1) mice. The following applies: endpoint: median survival time, higher = longer survival. In a few lines: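 Vehicle-treated animals serve as the reference (C); treated animals (T) are scored for survival or tumor size after tumor transplantation.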

Setting [1] is: dose: 16.0 mg/kg/injection, schedule: Q01DX009 (ip), vehicle: saline.
The mark [2] stands for this setting: dose: 32.0 mg/kg/injection, schedule: Q01DX009 (ip), vehicle: saline.
The mark [3] stands for this setting: dose: 64.0 mg/kg/injection, schedule: Q01DX009 (ip), vehicle: saline.
Setting [4] is: dose: 50.0 mg/kg/injection, schedule: Q01DX009 (ip), vehicle: saline with Tween-80.
Setting [5] is: dose: 100.0 mg/kg/injection, schedule: Q01DX009 (ip), vehicle: saline with Tween-80.
Setting [6] is: dose: 200.0 mg/kg/injection, schedule: Q01DX009 (ip), vehicle: saline with Tween-80.
[7] abbreviates: dose: 400.0 mg/kg/injection, schedule: Q01DX009 (ip), vehicle: saline with Tween-80.
Setting [8] is: dose: 50.0 mg/kg/injection, schedule: Q01DX009 (ip), vehicle: saline.
Where [9] appears, read: dose: 100.0 mg/kg/injection, schedule: Q01DX009 (ip), vehicle: saline.
The mark [10] stands for this setting: dose: 200.0 mg/kg/injection, schedule: Q01DX009 (ip), vehicle: saline.
[11] abbreviates: dose: 400.0 mg/kg/injection, schedule: Q01DX009 (ip), vehicle: saline.
Setting [12] is: dose: 100.0 mg/kg/injection, schedule: Q04DX003 (ip), vehicle: Klucel (hydroxypropylcellulose) (HPC).
Setting [13] is: dose: 200.0 mg/kg/injection, schedule: Q04DX003 (ip), vehicle: Klucel (hydroxypropylcellulose) (HPC).
The mark [14] stands for this setting: dose: 400.0 mg/kg/injection, schedule: Q04DX003 (ip), vehicle: Klucel (hydroxypropylcellulose) (HPC).
Where [15] appears, read: dose: 25.0 mg/kg/injection, schedule: Q01DX009 (ip), vehicle: Klucel (hydroxypropylcellulose) (HPC).

`CC12CC3OC(=O)C1COC14OC5(C2C1=O)C(O)(CCC1C4CC(O)C2(O)CC=CC(=O)C12C)C(=O)OC35C` (stereo not given): the T/C is, setting by setting: (dose: 3.0 mg/kg/injection, schedule: Q01DX009 (ip), vehicle: Klucel (hydroxypropylcellulose) (HPC)) 120 % of control; (dose: 6.0 mg/kg/injection, schedule: Q01DX009 (ip), vehicle: Klucel (hydroxypropylcellulose) (HPC)) 98 % of control and 124 % of control; (dose: 12.0 mg/kg/injection, schedule: Q01DX009 (ip), vehicle: Klucel (hydroxypropylcellulose) (HPC)) 110 % of control and 118 % of control; (dose: 24.0 mg/kg/injection, schedule: Q01DX009 (ip), vehicle: Klucel (hydroxypropylcellulose) (HPC)) 113 % of control and 120 % of control; (dose: 48.0 mg/kg/injection, schedule: Q01DX009 (ip), vehicle: Klucel (hydroxypropylcellulose) (HPC)) 120 % of control.

In the case of `O=c1ccn(C2OC(CO)C(O)C2O)c(=O)[nH]1` (stereo not given), the T/C under setting [1] is 100 % of control; the T/C (dose: 32.0 mg/kg/injection, schedule: Q01DX009 (ip), vehicle: Klucel (hydroxypropylcellulose) (HPC)) is 98 % of control and 104 % of control; the T/C under setting [2] is 96 % of control and 101 % of control; the T/C (dose: 64.0 mg/kg/injection, schedule: Q01DX009 (ip), vehicle: Klucel (hydroxypropylcellulose) (HPC)) was 99 % of control and 101 % of control; the T/C under setting [3] was 93 % of control and 98 % of control; the T/C (dose: 128.0 mg/kg/injection, schedule: Q01DX009 (ip), vehicle: Klucel (hydroxypropylcellulose) (HPC)) is 103 % of control. The T/C is 101 % of control and 114 % of control (dose: 128.0 mg/kg/injection, schedule: Q01DX009 (ip), vehicle: saline); 97 % of control and 103 % of control (dose: 256.0 mg/kg/injection, schedule: Q01DX009 (ip), vehicle: Klucel (hydroxypropylcellulose) (HPC)); 100 % of control and 110 % of control (dose: 256.0 mg/kg/injection, schedule: Q01DX009 (ip), vehicle: saline); 102 % of control and 108 % of control (dose: 512.0 mg/kg/injection, schedule: Q01DX009 (ip), vehicle: Klucel (hydroxypropylcellulose) (HPC)); 105 % of control (dose: 512.0 mg/kg/injection, schedule: Q01DX009 (ip), vehicle: saline).

Consider `COc1cc(C2C(C(=O)OC/C=C/c3ccc4c(c3)OCO4)C(c3cc(OC)c(OC)c(OC)c3)C2C(=O)OC/C=C/c2ccc3c(c2)OCO3)cc(OC)c1OC` (stereo not given), for which the T/C under setting [4] is 98 % of control, the T/C under setting [5] is 92 % of control, the T/C under setting [6] was 88 % of control and the T/C under setting [7] is 91 % of control.

`O=C(O)CP(=O)(O)O`: the T/C (dose: 4.0 mg/kg/injection, schedule: Q01DX009 (ip), vehicle: saline) is 109 % of control; the T/C (dose: 8.0 mg/kg/injection, schedule: Q01DX009 (ip), vehicle: saline) is 104 % of control; the T/C under setting [1] was 102 % of control; the T/C under setting [2] was 101 % of control; the T/C under setting [8] is 103 % of control; the T/C under setting [3] is 102 % of control. The T/C by setting is: under setting [9], 120 % of control; under setting [10], 154 % of control; under setting [11], 194 % of control; (dose: 800.0 mg/kg/injection, schedule: Q01DX009 (ip), vehicle: saline) 211 % of control.

Turning to `Cc1cc(Cl)ccc1NC(=O)c1ccc(Cl)cc1Cl`, the T/C reads like this: under setting [12], 100 % of control; under setting [13], 97 % of control; under setting [14], 97 % of control.

Regarding `CSC(=C[N+](=O)[O-])SC`, the T/C by setting is: (dose: 1.56 mg/kg/injection, schedule: Q01DX009 (ip), vehicle: water) 108 % of control; (dose: 3.13 mg/kg/injection, schedule: Q01DX009 (ip), vehicle: water) 91 % of control; (dose: 6.25 mg/kg/injection, schedule: Q01DX009 (ip), vehicle: water) 95 % of control; (dose: 12.5 mg/kg/injection, schedule: Q01DX009 (ip), vehicle: water) 99 % of control; (dose: 25.0 mg/kg/injection, schedule: Q01DX009 (ip), vehicle: water) 89 % of control.

With `NC(=O)CC1=NCCc2ccccc21`, the T/C is, setting by setting: (dose: 25.0 mg/kg/injection, schedule: Q01DX009 (ip), vehicle: saline) 105 % of control; under setting [8], 97 % of control; under setting [9], 91 % of control and 105 % of control.

Regarding `Cc1cc[n+](C)c2ccccc12`, the T/C is, setting by setting: (dose: 9.37 mg/kg/injection, schedule: Q01DX009 (ip), vehicle: saline) 95 % of control; (dose: 18.75 mg/kg/injection, schedule: Q01DX009 (ip), vehicle: saline) 92 % of control; (dose: 37.5 mg/kg/injection, schedule: Q01DX009 (ip), vehicle: saline) 97 % of control.

Take `[Cl][Hg][c]1ccc2ccccc2c1`: the T/C is, setting by setting: (dose: 1.5 mg/kg/injection, schedule: Q01DX009 (ip), vehicle: gum acacia) 108 % of control; (dose: 3.0 mg/kg/injection, schedule: Q01DX009 (ip), vehicle: gum acacia) 95 % of control; (dose: 6.0 mg/kg/injection, schedule: Q01DX009 (ip), vehicle: gum acacia) 95 % of control; (dose: 12.5 mg/kg/injection, schedule: Q01DX009 (ip), vehicle: gum acacia) 96 % of control.

Turning to `O=C(Nc1ccccc1Cl)Oc1ccccc1Cc1ccccc1`, the T/C under setting [12] is 100 % of control, the T/C under setting [13] was 106 % of control and the T/C under setting [14] is 93 % of control.

Take `COc1ccc(NC(=O)Nc2ccc(C)cc2C)cc1`: the T/C under setting [15] is 106 % of control; the T/C (dose: 50.0 mg/kg/injection, schedule: Q01DX009 (ip), vehicle: Klucel (hydroxypropylcellulose) (HPC)) was 101 % of control; the T/C (dose: 100.0 mg/kg/injection, schedule: Q01DX009 (ip), vehicle: Klucel (hydroxypropylcellulose) (HPC)) is 106 % of control; the T/C (dose: 200.0 mg/kg/injection, schedule: Q01DX009 (ip), vehicle: Klucel (hydroxypropylcellulose) (HPC)) was 93 % of control.

Take `O=C(CCCN1CCC(n2c(=O)[nH]c3ccccc32)CC1)c1ccc(F)cc1`: the T/C reads like this: (dose: 0.78 mg/kg/injection, schedule: Q01DX009 (ip), vehicle: Klucel (hydroxypropylcellulose) (HPC)) 121 % of control; (dose: 3.12 mg/kg/injection, schedule: Q01DX009 (ip), vehicle: Klucel (hydroxypropylcellulose) (HPC)) 86 % of control; (dose: 6.25 mg/kg/injection, schedule: Q01DX009 (ip), vehicle: Klucel (hydroxypropylcellulose) (HPC)) 92 % of control; (dose: 12.5 mg/kg/injection, schedule: Q01DX009 (ip), vehicle: Klucel (hydroxypropylcellulose) (HPC)) 89 % of control; under setting [15], 89 % of control and 94 % of control.

For the compound `Oc1cccnc1CN1CCOCC1`, the T/C is, setting by setting: under setting [5], 106 % of control; under setting [6], 109 % of control; under setting [7], 100 % of control.

On to `CC(=N\O)/C(C)=N/O.CC(=N\O)/C(C)=N/O.CCCC1CC[N-]CC1.CCCC1CC[N-]CC1.CCCC1CC[N-]CC1.CCCC1CC[N-]CC1.[Cl-].[Cl-].[Cl][Rh][Cl].[Rh+3]`, for which the T/C runs as follows: (dose: 0.19 mg/kg/injection, schedule: Q01DX009 (ip), vehicle: saline) 104 % of control; (dose: 0.38 mg/kg/injection, schedule: Q01DX009 (ip), vehicle: saline) 107 % of control; (dose: 0.75 mg/kg/injection, schedule: Q01DX009 (ip), vehicle: saline) 104 % of control; (dose: 1.5 mg/kg/injection, schedule: Q01DX009 (ip), vehicle: saline) 103 % of control; (dose: 3.0 mg/kg/injection, schedule: Q01DX009 (ip), vehicle: saline) 105 % of control.

Consider `O=C(Nc1nccs1)C(F)(F)F`, for which the T/C under setting [8] is 98 % of control, the T/C under setting [9] is 106 % of control, the T/C under setting [10] was 103 % of control and the T/C under setting [11] was 97 % of control.

`OCC1OC(n2cnc3c(=S)nc[nH]c32)C(O)C1O` (stereo not given): the T/C reads like this: (dose: 12.5 mg/kg/injection, schedule: Q01DX009 (ip), vehicle: saline sonified) 102 % of control; (dose: 25.0 mg/kg/injection, schedule: Q01DX009 (ip), vehicle: saline sonified) 105 % of control; (dose: 50.0 mg/kg/injection, schedule: Q01DX009 (ip), vehicle: saline sonified) 105 % of control; under setting [4], 104 % of control; (dose: 100.0 mg/kg/injection, schedule: Q01DX009 (ip), vehicle: saline sonified) 95 % of control and 100 % of control; under setting [5], 104 % of control. Also, the T/C was 102 % of control (dose: 200.0 mg/kg/injection, schedule: Q01DX009 (ip), vehicle: saline sonified) and 100 % of control under setting [6].
